# Reference: article PMC8222276 (Communications Biology, 2021)
# Columns and labels:
# [1] = biological target: T1, CGRP receptor (CLR-RAMP1) in RAMP1-HUVECs (Homo sapiens, UniProt O60894+Q16602); assay: mobilisation of Ca2+i in RAMP1-HUVECs; assay type: cell-based
# T1 construct: biased agonism at the endogenous CLR in a physiological system; the open reading frame of RAMP1 into our HUVEC∆RAMP2 cell line; host or cells: HUVEC-∆RAMP2 (CRISPR-Cas9 RAMP2 knockout pool), lentiviral transduction, blasticidin selection
# Experimental: (§1) Data are analysed using a three-parameter non-linear regression curve or the operational model of receptor agonism. g–h Signalling bias plots were calculated as ∆Log(τ/KA) (g) or ∆∆Log(τ/KA) (h) for each agonist and for each signalling pathway. […] All data represent mean ± SEM for n repeats.
# All cell lines were plated at 20,000 cells/well on 96-well black clear-bottom plates (Costar, UK) 24 h before the experiment. […] Cells were then washed twice with calcium-free HBSS, then were left in 100 μl calcium-free HBSS for the duration of the assay. […] Data was normalised to the response seen with 10 μM Ionomycin.
# All sample sizes were determined, and data analysed, in accordance with the guidelines described by Curtis M et al.[65]. All experiments were appropriately controlled using ‘system pathway’ agonists. If any of these pathway controls generated inappropriate responses, then the entire data set was removed from analysis. […] Data analysis for cAMP accumulation, Ca^2+i mobilisation, NO accumulation, pERK1/2 activation, and cell proliferation assays were performed in GraphPad Prism 8.4 (GraphPad Software, San Diego). Data were fitted to obtain concentration–response curves using either the three-parameter logistic equation using to obtain values of Emax and pEC50 or the operational model of agonism. Statistical differences were analysed using one-way ANOVA followed by Dunnett’s post-hoc (for comparisons amongst more than two groups) or unpaired Student’s t test with Welch’s correction (for comparison between two groups).
# [2] = biological target: T1, CGRP receptor (CLR-RAMP1) in RAMP1-HUVECs; assay: ERK1/2 phosphorylation in RAMP1-HUVECs; assay type: cell-based
# Experimental: as §1
# (§2) Primary cells were grown in 6 well plates, on the day of the experiment media was replaced with serum free media 4 h prior to cell harvesting. Tyrpsin-EDTA was used to dissociate the cells and they were collected by centrifugation, counted and re-suspended HBSS/BSA (0.1%). Ligands were also diluted in HBSS/BSA. Cells were then plated on 384 well plates in 8 μl aliquots at a density of 20,000 cells/well. Next, ligands were added (4 μl) for 5 min stimulation at room temperature. Cells were then lysed as per to the manufacturer’s instructions with 4 μl of lysis buffer (Cisbio phosphor-ERK1/2 cellular assay kit, Invitrogen, UK) for 30 min shaking at room temperature. The 2 specific antibodies; were pre-mixed in a 1:1 ratio. 4 μl of this was added to each well and the plate incubated for a further 2 h.
# All sample sizes were determined, and data analysed, in accordance with the guidelines described by Curtis M et al.[65]. All experiments were appropriately controlled using ‘system pathway’ agonists. If any of these pathway controls generated inappropriate responses, then the entire data set was removed from analysis.
# [3] = biological target: T2, CGRP receptor (CLR-RAMP1) in human cardiomyocytes (HCMs) (Homo sapiens, UniProt O60894+Q16602); assay: mobilisation of Ca2+i in HCMs; assay type: cell-based
# T2 construct: primary human cardiomyocytes (HCMs) since these cells only expressed CLR and RAMP1; host or cells: primary human cardiomyocytes (HCMs)
# Experimental: (§3) Data are analysed using a three-parameter non-linear regression curve or the operational model of receptor agonism. g, h Signalling bias plots were calculated as ∆Log(τ/KA) (g) or ∆∆Log(τ/KA) (h) for each agonist and for each signalling pathway. […] All data represent mean ± SEM for n repeats.
# All cell lines were plated at 20,000 cells/well on 96-well black clear-bottom plates (Costar, UK) 24 h before the experiment. […] Cells were then washed twice with calcium-free HBSS, then were left in 100 μl calcium-free HBSS for the duration of the assay. In conditions where Gαq/11/14 signalling is inhibited, cells were pre-treated with 100 nM YM-254890 (Alpha Laboratories, UK) (30 min)[22]. All assays were performed using the BD Pathway 855 Bioimaging Systems (BD Biosciences, UK), which dispenses ligands (20 μl) and reads immediately for 2 min. Data was normalised to the response seen with 10 μM Ionomycin.
# (§4) All sample sizes were determined, and data analysed, in accordance with the guidelines described by Curtis M et al.[65]. All experiments were appropriately controlled using ‘system pathway’ agonists. If any of these pathway controls generated inappropriate responses, then the entire data set was removed from analysis. […] Data analysis for cAMP accumulation, Ca^2+i mobilisation, NO accumulation, pERK1/2 activation, and cell proliferation assays were performed in GraphPad Prism 8.4 (GraphPad Software, San Diego). Data were fitted to obtain concentration–response curves using either the three-parameter logistic equation using to obtain values of Emax and pEC50 or the operational model of agonism. Statistical differences were analysed using one-way ANOVA followed by Dunnett’s post-hoc (for comparisons amongst more than two groups) or unpaired Student’s t test with Welch’s correction (for comparison between two groups). To account for the day-to-day variation experienced from the cultured cells, we used the maximal level of cAMP accumulation from cells in response to 100 μM forskolin stimulation was used as a reference, 10 μM ionomycin for Ca^2+i assays, 10 μM phorbol 12-myristate 13-acetate (PMA) for pERK1/2 activation, 10 μM acetylcholine for NO production and 10 μM VEGF for cell proliferation. […] Where appropriate the operational model for receptor agonism[27] was used to obtain efficacy (τ) and equilibrium disassociation constant (KA) values. In both cases, this normalisation removes the variation due to differences in days but retains the variance for control values. The means of individual experiments were combined to generate the curves shown. Having obtained values for τ and KA these were then used to quantify signalling bias as the change in Log(τ/KA)[19],[28]. Error for this composite measure was propagated by applying Eq. 1.1 PooledSEM=(SEMA)^2+(SEMB)^2 Where, SEMA and SEMB are the standard error of measurement A and B.
# [4] = biological target: T2, CGRP receptor (CLR-RAMP1) in human cardiomyocytes (HCMs); assay: ERK1/2 phosphorylation in HCMs; assay type: cell-based
# Experimental: as §3, §2, §4
# [5] = system: heart; conditions: cited from earlier work
# [6] = Ca2+i, RAMP1-HUVEC, operational model, mean ± SEM
# [7] = pERK1/2, RAMP1-HUVEC, operational model, mean ± SEM
# [8] = Ca2+i, HCM, operational model, mean ± SEM
# [9] = pERK1/2, HCM, operational model, mean ± SEM
# T1 sequence (Q16602 23-461): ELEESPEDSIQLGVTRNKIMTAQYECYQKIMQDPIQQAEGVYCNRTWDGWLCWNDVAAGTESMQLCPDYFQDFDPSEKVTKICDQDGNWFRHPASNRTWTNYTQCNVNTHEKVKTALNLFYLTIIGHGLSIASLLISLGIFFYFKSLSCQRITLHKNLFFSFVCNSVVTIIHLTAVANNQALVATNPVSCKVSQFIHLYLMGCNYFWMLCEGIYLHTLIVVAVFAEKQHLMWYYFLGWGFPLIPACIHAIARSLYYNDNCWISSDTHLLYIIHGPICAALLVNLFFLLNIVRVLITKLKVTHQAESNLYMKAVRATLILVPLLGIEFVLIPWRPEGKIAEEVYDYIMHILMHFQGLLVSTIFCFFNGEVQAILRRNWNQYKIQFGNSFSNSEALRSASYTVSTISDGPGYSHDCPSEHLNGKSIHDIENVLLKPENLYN
# T1 sequence (O60894 27-148): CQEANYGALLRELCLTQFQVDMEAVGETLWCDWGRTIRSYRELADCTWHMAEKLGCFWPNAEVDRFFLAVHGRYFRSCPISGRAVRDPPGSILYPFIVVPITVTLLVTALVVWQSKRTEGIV
# T2 sequence (Q16602 23-461): as the sequence (Q16602 23-461) above
# T2 sequence (O60894 27-148): as the sequence (O60894 27-148) above
compound,measurement,setting,value
"CSCC[C@H](NC(=O)[C@H](CC(C)C)NC(=O)[C@H](CCC(N)=O)NC(=O)[C@H](Cc1c[nH]c2ccccc12)NC(=O)[C@H](CC(C)C)NC(=O)[C@H](CCCNC(=N)N)NC(=O)[C@H](Cc1c[nH]cn1)NC(=O)[C@H](CO)NC(=O)[C@H](CC(C)C)NC(=O)[C@H](CC(N)=O)NC(=O)[C@H](CCC(N)=O)NC(=O)[C@@H](NC(=O)[C@H](CCC(N)=O)NC(=O)[C@@H]1CSSC[C@H](NC(=O)CNC(=O)[C@@H](NC(=O)[C@H](CCCNC(=N)N)NC(=O)[C@H](CC(C)C)NC(=O)[C@H](CC(C)C)NC(=O)[C@H](CCC(N)=O)NC(=O)[C@H](C)NC(=O)[C@H](CCC(N)=O)NC(=O)[C@@H](N)[C@@H](C)O)C(C)C)C(=O)N[C@@H](C(C)C)C(=O)N[C@@H](CC(C)C)C(=O)NCC(=O)N[C@@H]([C@@H](C)O)C(=O)N1)C(C)C)C(=O)NCC(=O)N1CCC[C@H]1C(=O)N[C@@H](C)C(=O)NCC(=O)N[C@@H](CCCNC(=N)N)C(=O)N[C@@H](CCC(N)=O)C(=O)N[C@@H](CC(=O)O)C(=O)N[C@@H](CO)C(=O)N[C@@H](C)C(=O)N1CCC[C@H]1C(=O)N[C@H](C(=O)N[C@@H](CC(=O)O)C(=O)N1CCC[C@H]1C(=O)N[C@@H](CO)C(=O)N[C@@H](CO)C(=O)N1CCC[C@H]1C(=O)N[C@@H](Cc1c[nH]cn1)C(=O)N[C@@H](CO)C(=O)N[C@@H](Cc1ccc(O)cc1)C(N)=O)C(C)C [AM2, adrenomedullin 2]",Emax,[1],41 ± 2.26%
same,Transducer coefficient Log(τ/KA),"[1]; Ca2+i, RAMP1-HUVEC, calculated from Table S2",5.46±0.19
same,logτ,[1]; [6],-0.18±0.06
same,pKA,[1]; [6],5.64±0.18
same,Emax,[2],45.4 ± 2.89%
same,Transducer coefficient Log(τ/KA),"[2]; pERK1/2, RAMP1-HUVEC, calculated from Table S2",6.50±0.15
same,logτ,[2]; [7],-0.06±0.05
same,pKA,[2]; [7],6.56±0.14
same,Emax,[3],36.5 ± 2.31%
same,Transducer coefficient Log(τ/KA),"[3]; Ca2+i, HCM, calculated from Table S2",7.61±0.35
same,logτ,[3]; [8],-0.30±0.05
same,pKA,[3]; [8],7.91±0.35
same,Emax,[4],40.4 ± 4.17%
same,Transducer coefficient Log(τ/KA),"[4]; pERK1/2, HCM, calculated from Table S2",5.32±0.20
same,logτ,[4]; [9],-0.20±0.08
same,pKA,[4]; [9],5.52±0.18
same,effect of protein kinase inhibitors on contraction effect,[5],blocked by both inhibitors of both protein kinase A and C
"CC[C@H](C)[C@H](NC(=O)[C@H](CCC(N)=O)NC(=O)[C@H](Cc1c[nH]cn1)NC(=O)[C@H](C)NC(=O)[C@H](CC(C)C)NC(=O)[C@H](CCCCN)NC(=O)[C@H](CCC(N)=O)NC(=O)[C@@H](NC(=O)[C@@H](NC(=O)[C@@H]1CSSC[C@H](NC(=O)CNC(=O)[C@H](Cc2ccccc2)NC(=O)[C@H](CO)NC(=O)[C@H](CCCNC(=N)N)NC(=O)[C@H](CC(C)C)NC(=O)CNC(=O)[C@H](CCC(N)=O)NC(=O)[C@H](Cc2ccccc2)NC(=O)[C@H](CC(N)=O)NC(=O)[C@H](CC(N)=O)NC(=O)[C@H](CCSC)NC(=O)[C@H](CO)NC(=O)[C@H](CCC(N)=O)NC(=O)[C@H](CCCNC(=N)N)NC(=O)[C@@H](N)Cc2ccc(O)cc2)C(=O)N[C@@H](CCCNC(=N)N)C(=O)N[C@@H](Cc2ccccc2)C(=O)NCC(=O)N[C@@H]([C@@H](C)O)C(=O)N1)[C@@H](C)O)C(C)C)C(=O)N[C@@H](Cc1ccc(O)cc1)C(=O)N[C@@H](CCC(N)=O)C(=O)N[C@@H](Cc1ccccc1)C(=O)N[C@H](C(=O)N[C@@H](CC(=O)O)C(=O)N[C@@H](CCCCN)C(=O)N[C@@H](CC(=O)O)C(=O)N[C@@H](CCCCN)C(=O)N[C@@H](CC(=O)O)C(=O)N[C@@H](CC(N)=O)C(=O)N[C@H](C(=O)N[C@@H](C)C(=O)N1CCC[C@H]1C(=O)N[C@@H](CCCNC(=N)N)C(=O)N[C@@H](CO)C(=O)N[C@@H](CCCCN)C(=O)N[C@H](C(=O)N[C@@H](CO)C(=O)N1CCC[C@H]1C(=O)N[C@@H](CCC(N)=O)C(=O)NCC(=O)N[C@@H](Cc1ccc(O)cc1)C(N)=O)[C@@H](C)CC)C(C)C)[C@@H](C)O [AM, adrenomedullin]",Emax,"[1]; Ca2+i, RAMP1-HUVEC, relative to 10 μM ionomycin, mean ± SEM, read-out: Emax",44.1 ± 1.42%
same,Emax,"[2]; pERK1/2, RAMP1-HUVEC, 5 min, relative to 10 μM PMA, mean ± SEM, read-out: Emax",47.6 ± 1.48%
same,Emax,"[3]; Ca2+i, HCM, relative to 10 μM ionomycin, mean ± SEM, read-out: Emax",58.12 ± 0.15%
same,Emax,"[4]; pERK1/2, HCM, 5 min, relative to 10 μM PMA, mean ± SEM, read-out: Emax",40.1 ± 2.02%
